Entries after “also recorded” stand apart in the source; their conditions may differ.
What was measured:
[1] = test system: COPD exacerbations in patients with COPD; assay: Clinical Study A: placebo-controlled, double-blind 6-month study of Ariflo 15 mg BID in COPD patients; format: in vivo, human; conditions: for Number of Patients Exacerbation-free / Estimated Percentage Exacerbation-Free (Exacerbation-free Survival Rate): 24 weeks, ITT, 15 mg BID; for Estimated Percentage Exacerbation-Free (Exacerbation-free Survival Rate): Kaplan-Meier estimate
Source text: (§1) Acute COPD exacerbations, defined as worsening of COPD symptoms that required changes in treatment including antimicrobial therapy, a short course of oral corticosteroids or other bronchodilator therapy. Exacerbations were categorized to three levels: • Level 1: self-managed by the patient at home by increasing usual medication for COPD. • Level 2: requiring additional treatment prescribed by a family or primary care physician or as a result of a hospital outpatient visit including a visit to the Emergency Room. • Level 3: requiring the patient to be admitted to the hospital for treatment. Clinical trials in COPD patients were carried out to investigate the efficacy of an 15 mg immediate release tablet, BID of Ariflo. […] In each of the studies, patients with COPD entered a 4-week placebo run-in period and were then randomized to receive Ariflo 15 mg twice daily or placebo in a ratio of 2 to 1. Patients were monitored following 1, 2 and 4 weeks of treatment and subsequently at 4-week intervals. Patients were permitted to receive concomitant salbutamol (prn) and/or short acting anticholinergic therapy at a stable dose during these studies. Pulmonary function measurements were performed at each visit (with the exception of Week 1). The St. George's Respiratory Questionnaire (SGRQ) was administered at Baseline, and Weeks 12 and 24 (or at the time of withdrawal). Routine compliance, vital sign, and laboratory assessments were performed at each visit. These studies included frequent ECG assessments and extensive monitoring of patients reporting gastrointestinal adverse experiences of potential clinical concern to address concerns about possible effects of SB 207499 on both cardiovascular and gastrointestinal body systems. 12-lead ECG assessments were conducted at screening, prior to dosing at Baseline, and prior to dosing at each visit during the double-blind treatment period. In addition, 12-lead ECGs were performed 3 hours after the administration of drug on the first and last day of dosing. In a subset of patients, 24-hour Holter ECG monitoring was conducted during Run-in and at Weeks 1 and 20. Orthostatic vital signs and faecal occult blood tests were determined for all patients in order to obtain a general incidence of abnormal assessments in this patient population. Orthostatic vital signs were determined at Screening, Baseline and the end of double-blind treatment. Faecal occult blood tests were performed between Screening and Baseline and between 20 weeks and the end of double-blind treatment (24 weeks).

[2] = test system: COPD exacerbations in patients with COPD; assay: Clinical Study B: placebo-controlled, double-blind study of Ariflo 15 mg BID in COPD patients; format: in vivo, human; conditions: for Number of Patients Exacerbation-free / Estimated Percentage Exacerbation-Free (Exacerbation-free Survival Rate): 24 weeks, ITT, 15 mg BID; for Estimated Percentage Exacerbation-Free (Exacerbation-free Survival Rate): Kaplan-Meier estimate
Source text: as §1, with “studies. Study B included a 2-week, randomised, double-blind, run-out phase to examine the effects of discontinuation of treatment. Patients who received Ariflo during the initial 24 week period, were randomized (1:1 ratio) to Ariflo 15 mg BID or placebo for the run-out phase; patients who received placebo during the initial 24 weeks, continued on placebo during the run-out phase.” for “studies.”

[3] = test system: COPD exacerbations in patients with COPD; assay: Clinical Study C: placebo-controlled, double-blind 6-month study of Ariflo 15 mg BID in COPD patients; format: in vivo, human; conditions: for Number of Patients Exacerbation-free / Estimated Percentage Exacerbation-Free (Exacerbation-free Survival Rate): 24 weeks, ITT, 15 mg BID; for Estimated Percentage Exacerbation-Free (Exacerbation-free Survival Rate): Kaplan-Meier estimate
Source text: as §1

[4] = targeted for the treatment of multi-infarct dementia; 'may include'; cited from earlier work
[5] = developed as an antidepressant; cited from earlier work
[6] = 15 mg immediate release tablet BID

COc1ccc([C@]2(C#N)CC[C@@H](C(=O)O)CC2)cc1OC1CCCC1 [SB207499, cis-4-cyano-4-[3-(cyclopentyloxy)-4-methoxyphenyl]cyclohexane-1-carboxylic acid]
estimated percentages of patients exacerbation-free compared to placebo ([1]; 15 mg IR tablet BID, P=0.008): significantly greater
incidence of all categories of exacerbations and of more severe exacerbations (Levels 2 and 3) versus placebo [1, 6]: lower incidence
reduction of the risk of an exacerbation requiring treatment by a physician or hospitalization ([1]; 15 mg immediate release tablet BID, Kaplan-Meier estimates, P=0.001): 45%
reduction of the risk of having an exacerbation relative to placebo ([1]; 15 mg immediate release tablet BID, Kaplan-Meier estimates, P=0.002): 39%
Number of Patients Exacerbation-free ([1]; All Exacerbations, of 431 patients): 336
Estimated Percentage Exacerbation-Free (Exacerbation-free Survival Rate) ([1]; All Exacerbations, placebo 62.4): 74.0%
Number of Patients Exacerbation-free ([1]; Level 2 and 3 Exacerbations): 364
Estimated Percentage Exacerbation-Free (Exacerbation-free Survival Rate) ([1]; Level 2 and 3 Exacerbations, placebo 69.7): 81.7%
estimated percentages of patients exacerbation-free compared to placebo ([2]; 15 mg IR tablet BID, P=0.004): significantly greater
incidence of all categories of exacerbations and of more severe exacerbations (Levels 2 and 3) versus placebo [2, 6]: lower incidence
Number of Patients Exacerbation-free ([2]; All Exacerbations, of 469 patients): 318
Estimated Percentage Exacerbation-Free (Exacerbation-free Survival Rate) ([2]; All Exacerbations, placebo 51.1): 63.9%
Number of Patients Exacerbation-free ([2]; Level 2 and 3 Exacerbations): 367
Estimated Percentage Exacerbation-Free (Exacerbation-free Survival Rate) ([2]; Level 2 and 3 Exacerbations, placebo 64.3): 75.5%
reduction of the risk of an exacerbation requiring treatment by a physician or hospitalization (Levels 2 and 3) ([2]; over 26 weeks, P=0.004): 32%
reduction of the risk of having an exacerbation relative to placebo ([2]; over 26 weeks, P=0.005): 30%
affect on exacerbations ([3]; 15 mg BID over 6 months): marginal
efficacy in treating COPD ([3]; 15 mg BID over 6 months): equivocal
Number of Patients Exacerbation-free ([3]; All Exacerbations, of 474 patients): 299
Estimated Percentage Exacerbation-Free (Exacerbation-free Survival Rate) ([3]; All Exacerbations, placebo 56.0): 58.3%
Number of Patients Exacerbation-free ([3]; Level 2 and 3 Exacerbations): 354
Estimated Percentage Exacerbation-Free (Exacerbation-free Survival Rate) ([3]; Level 2 and 3 Exacerbations, placebo 71.0): 70.9%

CCCCn1c(=O)c2c(ncn2CC(C)=O)n(CCCC)c1=O [denbufylline]
side effects [4]: pyrosis, nausea and emesis

COc1ccc(C2CNC(=O)C2)cc1OC1CCCC1 (stereo not drawn) [rolipram]
side effects in clinical studies [5]: psychotropic activity; also recorded: gastrointestinal effects, e.g., pyrosis, nausea and emesis

Source: patent publication US20060069155A1, “Method for reducing exacerbations associated with COPD” (priority 2000, published 2006)
